Assay results: BindingDB's records for PubMed 11082453 (Abbott Laboratories, 2000)

Experiments:
[1] = biological target: Neuropeptide Y receptor type 2 (Rattus norvegicus, UniProt Q9ERC0)
[2] = biological target: 5-hydroxytryptamine receptor 7 (Rattus norvegicus, UniProt P32305)
[3] = biological target: Prostaglandin G/H synthase 1 (Rattus norvegicus, UniProt Q63921)
[4] = biological target: Melatonin receptor type 1A (Rattus norvegicus, UniProt P49218)
[5] = biological target: Cannabinoid receptor 2 (Rattus norvegicus, UniProt Q9QZN9)
[6] = biological target: Bombesin receptor subtype-3 (Rattus norvegicus, UniProt Q8K418)
[7] = biological target: Amine oxidase [flavin-containing] B (Rattus norvegicus, UniProt P19643)
[8] = biological target: Calcium release-activated calcium channel protein 1 (Homo sapiens, UniProt Q96D31)
Chain of Calcium release-activated calcium channel protein 1 (Q96D31 whole entry): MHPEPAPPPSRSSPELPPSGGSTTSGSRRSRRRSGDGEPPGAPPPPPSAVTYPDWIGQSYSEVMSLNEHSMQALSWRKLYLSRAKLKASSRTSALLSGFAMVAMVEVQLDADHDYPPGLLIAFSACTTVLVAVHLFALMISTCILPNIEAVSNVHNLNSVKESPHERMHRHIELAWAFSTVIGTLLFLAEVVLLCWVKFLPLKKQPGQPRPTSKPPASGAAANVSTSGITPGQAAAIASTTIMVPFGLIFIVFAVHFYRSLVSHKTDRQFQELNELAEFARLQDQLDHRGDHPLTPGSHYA

[9] = biological target: Beta-1 adrenergic receptor (Rattus norvegicus, UniProt P18090)
[10] = biological target: Voltage-dependent L-type calcium channel subunit alpha-1C (Rattus norvegicus, UniProt P22002)
Chain of Voltage-dependent L-type calcium channel subunit alpha-1C (P22002 whole entry): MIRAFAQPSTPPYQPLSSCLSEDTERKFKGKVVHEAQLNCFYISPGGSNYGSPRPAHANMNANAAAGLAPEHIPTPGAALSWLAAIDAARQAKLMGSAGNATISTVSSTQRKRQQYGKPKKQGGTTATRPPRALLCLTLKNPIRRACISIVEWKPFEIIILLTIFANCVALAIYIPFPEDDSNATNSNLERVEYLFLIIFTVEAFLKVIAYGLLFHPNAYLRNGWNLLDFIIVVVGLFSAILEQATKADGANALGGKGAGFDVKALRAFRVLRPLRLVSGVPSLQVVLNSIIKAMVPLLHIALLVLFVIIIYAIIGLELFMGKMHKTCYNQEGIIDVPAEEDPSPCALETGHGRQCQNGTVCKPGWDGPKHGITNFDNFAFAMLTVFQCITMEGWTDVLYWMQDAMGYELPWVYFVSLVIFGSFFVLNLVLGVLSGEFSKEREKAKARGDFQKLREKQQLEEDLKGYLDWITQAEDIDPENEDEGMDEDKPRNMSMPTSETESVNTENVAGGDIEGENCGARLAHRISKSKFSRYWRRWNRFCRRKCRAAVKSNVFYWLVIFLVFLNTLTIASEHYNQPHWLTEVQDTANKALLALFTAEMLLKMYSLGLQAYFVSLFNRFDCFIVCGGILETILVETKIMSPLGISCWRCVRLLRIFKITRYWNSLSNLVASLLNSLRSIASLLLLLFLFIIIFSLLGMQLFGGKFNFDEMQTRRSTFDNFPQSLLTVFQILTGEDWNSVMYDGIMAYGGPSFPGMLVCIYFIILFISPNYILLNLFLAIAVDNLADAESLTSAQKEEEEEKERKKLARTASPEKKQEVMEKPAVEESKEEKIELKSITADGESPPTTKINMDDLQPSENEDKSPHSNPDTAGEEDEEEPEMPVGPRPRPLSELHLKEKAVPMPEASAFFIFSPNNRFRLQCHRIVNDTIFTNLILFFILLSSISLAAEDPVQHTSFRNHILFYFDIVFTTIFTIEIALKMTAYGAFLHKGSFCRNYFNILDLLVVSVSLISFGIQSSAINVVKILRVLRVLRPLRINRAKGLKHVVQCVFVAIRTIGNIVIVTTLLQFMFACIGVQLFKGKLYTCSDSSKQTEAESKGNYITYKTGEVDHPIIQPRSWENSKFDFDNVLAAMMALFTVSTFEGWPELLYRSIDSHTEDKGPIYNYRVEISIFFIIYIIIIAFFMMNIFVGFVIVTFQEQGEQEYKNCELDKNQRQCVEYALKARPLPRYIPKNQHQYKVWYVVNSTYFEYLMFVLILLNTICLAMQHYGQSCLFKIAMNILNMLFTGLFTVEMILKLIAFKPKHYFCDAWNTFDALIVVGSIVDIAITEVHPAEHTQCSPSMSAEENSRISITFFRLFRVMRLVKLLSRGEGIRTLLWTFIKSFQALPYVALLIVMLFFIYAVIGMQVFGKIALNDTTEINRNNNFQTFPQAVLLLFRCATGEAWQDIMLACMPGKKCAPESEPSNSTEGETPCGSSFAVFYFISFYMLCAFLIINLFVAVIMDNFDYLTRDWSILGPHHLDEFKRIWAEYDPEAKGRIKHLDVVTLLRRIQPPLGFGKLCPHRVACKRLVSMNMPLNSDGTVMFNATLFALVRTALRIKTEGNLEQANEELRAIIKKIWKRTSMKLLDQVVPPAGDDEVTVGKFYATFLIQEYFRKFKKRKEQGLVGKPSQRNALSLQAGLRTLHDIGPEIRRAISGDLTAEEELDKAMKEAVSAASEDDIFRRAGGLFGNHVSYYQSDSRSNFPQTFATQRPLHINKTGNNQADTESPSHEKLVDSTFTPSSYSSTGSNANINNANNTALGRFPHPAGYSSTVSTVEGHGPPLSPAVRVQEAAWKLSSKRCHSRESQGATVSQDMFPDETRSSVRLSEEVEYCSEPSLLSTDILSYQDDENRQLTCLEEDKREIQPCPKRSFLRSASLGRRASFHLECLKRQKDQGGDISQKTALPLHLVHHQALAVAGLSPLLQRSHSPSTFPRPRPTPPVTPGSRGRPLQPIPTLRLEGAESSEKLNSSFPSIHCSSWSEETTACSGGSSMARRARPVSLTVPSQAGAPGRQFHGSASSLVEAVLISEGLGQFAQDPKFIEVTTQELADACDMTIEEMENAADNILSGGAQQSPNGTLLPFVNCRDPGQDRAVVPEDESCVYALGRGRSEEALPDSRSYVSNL

[11] = biological target: 5-hydroxytryptamine receptor 5A (Rattus norvegicus, UniProt P35364)
[12] = biological target: Substance-P receptor (Rattus norvegicus, UniProt P14600)
[13] = biological target: 5-hydroxytryptamine receptor 3A (Rattus norvegicus, UniProt P35563)
Chain of 5-hydroxytryptamine receptor 3A (P35563 whole entry): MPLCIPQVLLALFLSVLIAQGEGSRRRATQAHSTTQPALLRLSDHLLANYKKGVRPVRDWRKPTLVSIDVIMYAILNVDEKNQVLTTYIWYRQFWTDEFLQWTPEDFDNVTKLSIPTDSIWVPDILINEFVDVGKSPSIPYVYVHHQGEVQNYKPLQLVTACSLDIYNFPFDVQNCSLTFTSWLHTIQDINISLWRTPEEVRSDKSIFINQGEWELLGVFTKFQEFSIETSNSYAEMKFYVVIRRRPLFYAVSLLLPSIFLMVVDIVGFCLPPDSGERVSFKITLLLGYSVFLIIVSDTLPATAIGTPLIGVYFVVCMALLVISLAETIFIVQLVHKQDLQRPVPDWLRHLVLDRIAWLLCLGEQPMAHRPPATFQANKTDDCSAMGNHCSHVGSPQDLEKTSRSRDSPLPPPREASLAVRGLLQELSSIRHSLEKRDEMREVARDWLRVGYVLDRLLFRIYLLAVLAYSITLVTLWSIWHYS

[14] = biological target: Chloride channel protein 1 (Rattus norvegicus, UniProt P35524)
[15] = biological target: Muscarinic acetylcholine receptor M5 (Rattus norvegicus, UniProt P08911)
[16] = biological target: 5'-nucleotidase (Rattus norvegicus, UniProt P21588)
[17] = biological target: Gamma-aminobutyric acid (GABA) B receptor 1 (Rattus norvegicus, UniProt Q6MFX8)
[18] = biological target: Muscarinic acetylcholine receptor M4 (Rattus norvegicus, UniProt P08485)
[19] = biological target: Cannabinoid receptor 1 (Rattus norvegicus, UniProt P20272)
[20] = biological target: Galanin peptides (Rattus norvegicus, UniProt P10683)
Chain of Galanin peptides (P10683 33-61 limits assumed): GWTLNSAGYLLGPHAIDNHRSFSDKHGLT

[21] = biological target: Alpha-1A adrenergic receptor (Rattus norvegicus, UniProt P43140)
[22] = biological target: Alpha-2C adrenergic receptor (Rattus norvegicus, UniProt P22086)
[23] = biological target: Interleukin-1 alpha (Rattus norvegicus, UniProt P16598)
Chain of Interleukin-1 alpha (P16598 115-270 limits assumed): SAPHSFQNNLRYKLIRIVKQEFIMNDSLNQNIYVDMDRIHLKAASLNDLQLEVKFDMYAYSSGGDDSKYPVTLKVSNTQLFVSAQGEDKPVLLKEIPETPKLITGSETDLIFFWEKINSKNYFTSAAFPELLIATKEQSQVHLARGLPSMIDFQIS

[24] = biological target: 5-hydroxytryptamine receptor 6 (Rattus norvegicus, UniProt P31388)
[25] = biological target: Substance-K receptor (Rattus norvegicus, UniProt P16610)
[26] = biological target: Norepinephrine transporter (Rattus norvegicus, UniProt Q9JIA2)
[27] = biological target: Kappa-type opioid receptor (Rattus norvegicus, UniProt P34975)
[28] = biological target: D(4) dopamine receptor (Rattus norvegicus, UniProt P30729)
[29] = biological target: Vasopressin V1a receptor (Rattus norvegicus, UniProt P30560)
Chain of Vasopressin V1a receptor (P30560 whole entry): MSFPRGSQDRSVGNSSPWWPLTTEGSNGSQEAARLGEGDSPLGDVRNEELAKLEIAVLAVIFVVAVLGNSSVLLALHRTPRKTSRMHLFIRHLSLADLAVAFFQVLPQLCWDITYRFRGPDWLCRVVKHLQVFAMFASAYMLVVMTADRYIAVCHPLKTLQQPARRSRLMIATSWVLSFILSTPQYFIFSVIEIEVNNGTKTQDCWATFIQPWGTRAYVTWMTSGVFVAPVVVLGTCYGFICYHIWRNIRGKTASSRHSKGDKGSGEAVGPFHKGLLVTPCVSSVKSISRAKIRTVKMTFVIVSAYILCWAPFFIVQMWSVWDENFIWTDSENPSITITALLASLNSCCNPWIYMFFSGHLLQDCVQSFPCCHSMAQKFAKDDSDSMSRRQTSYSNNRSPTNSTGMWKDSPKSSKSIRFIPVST

[30] = biological target: Prostacyclin receptor (Rattus norvegicus, UniProt P43253)
Chain of Prostacyclin receptor (P43253 whole entry): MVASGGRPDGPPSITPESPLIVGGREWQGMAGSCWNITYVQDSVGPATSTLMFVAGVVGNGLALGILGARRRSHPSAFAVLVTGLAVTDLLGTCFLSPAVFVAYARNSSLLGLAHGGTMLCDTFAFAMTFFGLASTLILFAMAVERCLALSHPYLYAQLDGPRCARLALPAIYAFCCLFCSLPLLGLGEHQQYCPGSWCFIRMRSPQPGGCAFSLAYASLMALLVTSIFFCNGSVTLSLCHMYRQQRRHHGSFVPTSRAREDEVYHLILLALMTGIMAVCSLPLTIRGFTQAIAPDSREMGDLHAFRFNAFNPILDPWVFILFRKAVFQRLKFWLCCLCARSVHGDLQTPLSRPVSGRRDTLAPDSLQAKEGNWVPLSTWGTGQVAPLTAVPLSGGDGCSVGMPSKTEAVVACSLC

[31] = biological target: Vasopressin V2 receptor (Rattus norvegicus, UniProt Q00788)
[32] = biological target: Glutamate receptor ionotropic, kainate 1 (Rattus norvegicus, UniProt P22756)
[33] = biological target: D(2) dopamine receptor (Rattus norvegicus, UniProt P61169)
[34] = biological target: Gastrin/cholecystokinin type B receptor (Rattus norvegicus, UniProt P30553)
[35] = biological target: Prostaglandin G/H synthase 2 (Rattus norvegicus, UniProt P35355)
[36] = biological target: Pro-neuropeptide Y (Rattus norvegicus, UniProt P07808)
[37] = biological target: Endothelin-1 receptor (Rattus norvegicus, UniProt P26684)
Chain of Endothelin-1 receptor (P26684 whole entry): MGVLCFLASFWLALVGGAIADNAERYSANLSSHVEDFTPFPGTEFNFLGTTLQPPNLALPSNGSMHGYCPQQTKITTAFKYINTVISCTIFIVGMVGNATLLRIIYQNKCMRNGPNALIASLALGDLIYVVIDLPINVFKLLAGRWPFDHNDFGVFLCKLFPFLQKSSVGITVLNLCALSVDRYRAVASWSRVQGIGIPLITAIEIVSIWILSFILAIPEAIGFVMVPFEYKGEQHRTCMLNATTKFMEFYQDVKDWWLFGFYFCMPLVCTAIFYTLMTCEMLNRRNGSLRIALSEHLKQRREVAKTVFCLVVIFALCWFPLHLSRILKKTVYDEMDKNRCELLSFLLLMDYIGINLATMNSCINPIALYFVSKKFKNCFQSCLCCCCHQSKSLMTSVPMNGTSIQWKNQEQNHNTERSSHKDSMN

[38] = biological target: Histamine H2 receptor (Rattus norvegicus, UniProt P25102)
[39] = biological target: Thromboxane A2 receptor (Rattus norvegicus, UniProt P34978)
[40] = biological target: D(3) dopamine receptor (Rattus norvegicus, UniProt P19020)

Chain of Prostaglandin G/H synthase 1 (Q63921 whole entry): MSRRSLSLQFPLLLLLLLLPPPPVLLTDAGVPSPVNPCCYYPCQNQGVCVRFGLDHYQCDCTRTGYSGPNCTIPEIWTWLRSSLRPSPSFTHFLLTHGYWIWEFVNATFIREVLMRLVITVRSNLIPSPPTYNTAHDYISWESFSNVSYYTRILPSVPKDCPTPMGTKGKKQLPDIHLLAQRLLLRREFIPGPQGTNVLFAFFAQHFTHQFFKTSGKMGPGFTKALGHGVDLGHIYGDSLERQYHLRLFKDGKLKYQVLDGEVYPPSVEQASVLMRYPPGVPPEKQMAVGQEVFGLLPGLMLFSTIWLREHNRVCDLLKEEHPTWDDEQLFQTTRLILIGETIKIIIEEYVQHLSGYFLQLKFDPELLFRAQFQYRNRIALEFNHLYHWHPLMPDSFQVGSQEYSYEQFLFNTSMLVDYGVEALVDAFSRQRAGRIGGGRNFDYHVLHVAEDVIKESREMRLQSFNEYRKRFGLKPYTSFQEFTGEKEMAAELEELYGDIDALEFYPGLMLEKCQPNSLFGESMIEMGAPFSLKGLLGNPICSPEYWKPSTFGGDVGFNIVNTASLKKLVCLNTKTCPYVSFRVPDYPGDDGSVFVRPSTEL

`Nc1ncnc2nc(-c3ccc(N4CCOCC4)nc3)cc(-c3cccc(Br)c3)c12` was tested. Which Ki [1] did it give?
The Ki was over 10 µM.

What about the Ki [2] of the same compound?
The Ki was over 10 µM.

What about the Ki [3] of the same compound?
Its Ki is over 10 µM.

And the Ki [4]?
Its Ki is over 10 µM.

And the Ki [5]?
The Ki was over 10 µM.

And the Ki [6]?
The Ki was over 10 µM.

What about the Ki [7] of the same compound?
The Ki was over 10 µM.

And the Ki [8]?
Its Ki is over 10 µM.

And the Ki [9]?
The Ki was over 10 µM.

And the Ki [10]?
The Ki was over 10 µM.

And the Ki [11]?
The Ki was over 10 µM.

What about the Ki [12] of the same compound?
The Ki was over 10 µM.

What about the Ki [13] of the same compound?
The Ki was over 10 µM.

And the Ki [14]?
The Ki was over 10 µM.

What about the Ki [15] of the same compound?
Its Ki is over 10 µM.

What about the Ki [16] of the same compound?
The Ki was over 10 µM.

And the Ki [17]?
The Ki was over 10 µM.

What about the Ki [18] of the same compound?
Its Ki is over 10 µM.

What about the Ki [19] of the same compound?
The Ki was over 10 µM.

What about the Ki [20] of the same compound?
Its Ki is over 10 µM.

What about the Ki [21] of the same compound?
Its Ki is over 10 µM.

What about the Ki [22] of the same compound?
Its Ki is over 10 µM.

What about the Ki [23] of the same compound?
Its Ki is over 10 µM.

What about the Ki [24] of the same compound?
The Ki was over 10 µM.

And the Ki [25]?
The Ki was 8.56 µM.

And the Ki [26]?
Its Ki is over 10 µM.

What about the Ki [27] of the same compound?
Its Ki is 4.6 µM.

And the Ki [28]?
The Ki was over 10 µM.

What about the Ki [29] of the same compound?
Its Ki is over 10 µM.

And the Ki [30]?
The Ki was over 10 µM.

What about the Ki [31] of the same compound?
Its Ki is over 10 µM.

What about the Ki [32] of the same compound?
The Ki was over 10 µM.

What about the Ki [33] of the same compound?
The Ki was over 10 µM.

And the Ki [34]?
The Ki was over 10 µM.

And the Ki [35]?
The Ki was over 10 µM.

And the Ki [36]?
Its Ki is over 10 µM.

And the Ki [37]?
The Ki was over 10 µM.

What about the Ki [38] of the same compound?
Its Ki is over 10 µM.

And the Ki [39]?
The Ki was over 10 µM.

What about the Ki [40] of the same compound?
The Ki was over 10 µM.
